Measured values from patent US20220323521A1, “Compositions and Uses for Engineered Therapeutic Microbes and Associated Receptors” (The Brigham and Women`s Hospital, Inc., priority 2019, published 2022).
Numbering of substitutions follows the chain as printed. In names and notes the source's numbering stands.

B1: H7-2: human P2Y2 receptor mutant A76T A229V F307S (protein, UniProt P41231 1-377, looked up, variant A76T A229V F307S)
P2Y purinoceptor 2: MAADLGPWNDTINGTWDGDELGYRCRFNEDFKYVLLPVSYGVVCVPGLCLNAVALYIFLCRLKTWNASTTYMFHLTVSDALYAASLPLLVYYYARGDHWPFSTVLCKLVRFLFYTNLYCSILFLTCISVHRCLGVLRPLRSLRWGRARYARRVAGAVWVLVLACQAPVLYFVTTSARGGRVTCHDTSAPELFSRFVAYSSVMLGLLFAVPFAVILVCYVLMARRLLKPVYGTSGGLPRAKRKSVRTIAVVLAVFALCFLPFHVTRTLYYSFRSLDLSCHTLNAINMAYKVTRPLASANSCLDPVLYSLAGQRLVRFARDAKPPTGPSPATPARRRLGLRRSDRTDMQRIEDVLGSSEDSRRTESTPAGSENTKDIRL
B2: H1-1: human P2Y2 receptor mutant F58C C60Y G310A (protein, UniProt P41231 1-377, looked up, variant F58C C60Y G310A)
P2Y purinoceptor 2: B1 P2Y purinoceptor 2 with F58C, C60Y, T76A, V229A, S307F, G310A
B3: 18R2-18: human P2Y2 receptor mutant W16R V90A A295V (protein, UniProt P41231 1-377, looked up, variant W16R V90A A295V)
P2Y purinoceptor 2: B1 P2Y purinoceptor 2 with W16R, T76A, V90A, V229A, A295V, S307F

Each molecule was assayed against T1, human P2Y2 receptor (Homo sapiens, UniProt P41231) (assay: Flow cytometry evaluation of response to ATP and UTP (pFUS1-mCherry mating pathway reporter in yeast strain BS016)). Details: 100 μM eATP.
T1 construct: expressed in transfected cells; host or cells: Saccharomyces cerevisiae strain BS016 (Gpa1-Gαi3 chimera, pFUS1-mCherry reporter), plasmid pRS316 pTDH3
T1 sequence (P41231 whole entry): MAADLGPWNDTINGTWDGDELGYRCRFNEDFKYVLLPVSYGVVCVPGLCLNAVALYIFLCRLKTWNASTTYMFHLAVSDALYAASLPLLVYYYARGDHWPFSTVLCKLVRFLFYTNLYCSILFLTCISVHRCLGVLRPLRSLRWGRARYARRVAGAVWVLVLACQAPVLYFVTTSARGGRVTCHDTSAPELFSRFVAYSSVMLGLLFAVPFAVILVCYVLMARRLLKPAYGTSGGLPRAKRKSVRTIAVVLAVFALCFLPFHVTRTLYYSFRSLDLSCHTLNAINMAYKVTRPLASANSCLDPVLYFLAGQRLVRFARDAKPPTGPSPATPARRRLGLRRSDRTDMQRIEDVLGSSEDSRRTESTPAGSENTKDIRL
Type: cell-based
Method: (§1) Flow cytometry evaluation of response to ATP and UTP. Yeast strain BS016 transformed with a human P2Y2 gene in the pRS316 pTDH3 vector was grown in SC-URA liquid media overnight. The same strain transformed with a plasmid not containing a P2Y2 sequence (Vector) was used as a negative control. Cells were diluted to OD600 0.05 in 600 μL SC-URA containing ATP (0-25.6 mM; pH 7.0, Bio Basic) or UTP (0-3.2 mM; pH 7.0, Sigma-Aldrich) and incubated for 6 hours at 30° C. Cells were then treated with cycloheximide to a final concentration of 10 μg/mL. The mCherry signal of at least 10,000 cells was measured for each sample with a Miltenyi Biotec MACSQuant VYB. The mean mCherry fluorescence was determined using FlowJo. For dose-response assays, data was fitted with the “log(agonist) vs. response—Variable slope (four parameters)” model in Prism (GraphPad). After subtracting the mCherry fluorescence signal of the Vector control, fluorescence values were normalized to the wild-type P2Y2 control used in the same experiment, to allow comparisons between experiments performed on different days.
(§2) Directed evolution of human P2Y2 receptor. Error-prone PCR mutagenesis was performed using the Agilent GeneMorph II Random Mutagenesis Kit with yeast codon-optimized human P2Y2 as a template, using previously described methods (104). 150 ng of template DNA and 30 cycles achieved the desired mutation rate of ˜3 mutations per P2Y2 gene, determined by sequencing 12 randomly selected plasmids (Table 2). The random mutants were inserted into pRS316 pTDH3 using AarI-based cloning and transformed into NEB 5-alpha competent E. coli cells (New England Biolabs) generating >15,000 individual colonies. Cells were scraped off agar plates, mixed together, and plasmid DNA was extracted (QIAQuick Spin Miniprep Kit, Qiagen) to create the final plasmid library. The library was transformed into yeast strain BS016 using a high-efficiency lithium acetate-based method (105), yielding at least 10-fold the number of colonies as the total library size, so that each mutant would be screened multiple times. Transformed cells were incubated overnight, then diluted to OD600 0.05 into fresh 100 mL SC-URA liquid media containing 100 μM ATP (pH 7.0, Biobasic), and incubated for either 18 or 6 hours at 30° C. (FIG. 8). After brief sonication, 10^6-10^7 cells were gated by side and forward scatter and sorted for the highest ˜1% of mCherry signal using a BD Influx cell sorter (106). A total of 174 yeast colonies recovered from various sorting experiments were individually screened for their response to 100 μM UTP, 100 μM ATP, or with no ligand, after a 6-hour incubation. Plasmids were isolated from selected colonies by first incubating with zymolase (BioShop Canada) then extracting plasmid DNA (QIAQuick Spin Miniprep Kit, Qiagen). Plasmid DNA was amplified using NEB 5-alpha competent E. coli cells (New England Biolabs), the plasmid DNA was sequenced, and fresh BS016 yeast cells were transformed for dose-response experiments.
(§3) Maximum response values were normalized to the maximum mating pathway activation provided by the WT human P2Y2 receptor incubated with eATP. Dynamic range was the ratio of the highest fluorescence obtained in the presence of the indicated ligand versus 10% signal saturation. Linear range was the series of ligand concentrations for which a change in signal can be detected. The minimum limit of the linear range was estimated as the ligand concentration corresponding to 10% signal saturation. Data represents the mean of six colonies for eATP, three colonies for eUTP.
With “WT: wild-type human P2Y2 receptor (NP_002555.4), yeast codon-optimized [reference compound]” the “response to 100 μM eATP (mCherry expression)” value was “weak response”.

Same assay, conditions: agonist on WT human P2Y2 in Gpa1-Gαi3 pFUS1-mCherry strain
In the case of Nc1ncnc2c1ncn2[C@@H]1O[C@H](COP(=O)(O)OP(=O)(O)OP(=O)(O)O)[C@@H](O)[C@H]1O [eATP, adenosine triphosphate, reference compound], the EC50 is reported as 1860 µM.
Molecule O=c1ccn([C@@H]2O[C@H](COP(=O)(O)OP(=O)(O)OP(=O)(O)O)[C@@H](O)[C@H]2O)c(=O)[nH]1 [eUTP, uridine triphosphate, reference compound] has an EC50 of 123 µM.

What follows are molecules tested on human P2Y2 receptor in the same assay as above. Details: ligand eATP; ligand concentrations for which a change in signal can be detected.
Type: cell-based
Method: as §1, §2, §3
In the case of “H1-2: human P2Y2 receptor mutant F58L [Mutant H1-2]”, the “ATP Linear Range μM” value is reported as 4-4,966 μM.
For “H1-3: human P2Y2 receptor mutant F58I [Mutant H1-3]”, the “ATP Linear Range μM” value was 4-3,945 μM.
With “H1-4: human P2Y2 receptor mutant F58L S359P [Mutant H1-4]” the “ATP Linear Range μM” value was 5-3,882 μM.
For “H7-1: human P2Y2 receptor mutant K240N F307S [Mutant H7-1]”, the “ATP Linear Range” value was 0.3 to 18 µM.
With “TM-2: human P2Y2 receptor mutant L59I C119S” the “ATP Linear Range μM” value was 3-2,243 μM.
TM-3: human P2Y2 receptor mutant N116S was tested, and the “ATP Linear Range” value was 0.9 to 284 µM.
In the case of “TM-4: human P2Y2 receptor mutant L162I Q165H”, the “ATP Linear Range μM” value is reported as 0.5-8,950^ μM.
“WT: wild-type human P2Y2 receptor (NP_002555.4), yeast codon-optimized [reference compound]” was tested, and the “ATP Linear Range μM” value was 113-25,600 μM.
In the case of B1, the “ATP Linear Range” value is reported as 0.3 to 23 µM.
B2 was tested, and the “ATP Linear Range” value was 0.5 to 184 µM.

Same assay, conditions: ligand eATP; normalized to maximum mating pathway activation by WT human P2Y2 receptor with eATP
Molecule “H1-2: human P2Y2 receptor mutant F58L [Mutant H1-2]” has an ATP Max Response (±SE) of 122%.
“H1-3: human P2Y2 receptor mutant F58I [Mutant H1-3]” gave an ATP Max Response (±SE) of 152%.
“H1-4: human P2Y2 receptor mutant F58L S359P [Mutant H1-4]” showed an ATP Max Response (±SE) of 110%.
For “H7-1: human P2Y2 receptor mutant K240N F307S [Mutant H7-1]”, the ATP Max Response (±SE) was 181%.
Work on “TM-2: human P2Y2 receptor mutant L59I C119S” yielded an ATP Max Response (±SE) of 165%.
With TM-3: human P2Y2 receptor mutant N116S the ATP Max Response (±SE) was 110%.
“TM-4: human P2Y2 receptor mutant L162I Q165H” was tested, and the ATP Max Response (±SE) was 137%.
“WT: wild-type human P2Y2 receptor (NP_002555.4), yeast codon-optimized [reference compound]” was tested, and the ATP Max Response (±SE) was 100%.
With B1 the ATP Max Response (±SE) was 90%.
In the case of B2, the ATP Max Response (±SE) is reported as 149%.

Same assay, conditions: ligand eATP; ratio of highest fluorescence versus 10% signal saturation
In the case of “H1-2: human P2Y2 receptor mutant F58L [Mutant H1-2]”, the “ATP Dynamic Range” value is reported as 9.
For “H1-3: human P2Y2 receptor mutant F58I [Mutant H1-3]”, the “ATP Dynamic Range” value was 10.
With “H1-4: human P2Y2 receptor mutant F58L S359P [Mutant H1-4]” the “ATP Dynamic Range” value was 9.
“H7-1: human P2Y2 receptor mutant K240N F307S [Mutant H7-1]” was tested, and the “ATP Dynamic Range” value was 3.
In the case of “TM-2: human P2Y2 receptor mutant L59I C119S”, the “ATP Dynamic Range” value is reported as 9.
For TM-3: human P2Y2 receptor mutant N116S, the “ATP Dynamic Range” value was 5.
With “TM-4: human P2Y2 receptor mutant L162I Q165H” the “ATP Dynamic Range” value was 10.
For “WT: wild-type human P2Y2 receptor (NP_002555.4), yeast codon-optimized [reference compound]”, the “ATP Dynamic Range” value was 8.
With B1 the “ATP Dynamic Range” value was 2.
In the case of B2, the “ATP Dynamic Range” value is reported as 5.

Same assay, conditions: ligand eUTP; ligand concentrations for which a change in signal can be detected
In the case of “H1-2: human P2Y2 receptor mutant F58L [Mutant H1-2]”, the “UTP Linear Range” value is reported as 0.05 to 22 µM.
In the case of “H1-3: human P2Y2 receptor mutant F58I [Mutant H1-3]”, the “UTP Linear Range” value is reported as 0.4 to 550 µM.
In the case of “H1-4: human P2Y2 receptor mutant F58L S359P [Mutant H1-4]”, the “UTP Linear Range” value is reported as 0.2 to 61 µM.
For “H7-1: human P2Y2 receptor mutant K240N F307S [Mutant H7-1]”, the “UTP Linear Range” value was 0.02 to 3.1 µM.
“TM-2: human P2Y2 receptor mutant L59I C119S” was tested, and the “UTP Linear Range” value was 0.9 to 169 µM.
With TM-3: human P2Y2 receptor mutant N116S the “UTP Linear Range” value was 0.04 to 63 µM.
With “TM-4: human P2Y2 receptor mutant L162I Q165H” the “UTP Linear Range” value was 0.07 to 31 µM.
“WT: wild-type human P2Y2 receptor (NP_002555.4), yeast codon-optimized [reference compound]” was tested, and the “UTP Linear Range μM” value was 4-1,374 μM.
For B1, the “UTP Linear Range” value was 0.01 to 6 µM.
B2 was tested, and the “UTP Linear Range” value was 0.05 to 12 µM.

Same assay, conditions: ligand eUTP; normalized to maximum mating pathway activation by WT human P2Y2 receptor with eATP; unit assumed
“H1-2: human P2Y2 receptor mutant F58L [Mutant H1-2]” showed a UTP Max Response (±SE) of 101%.
Work on “H1-3: human P2Y2 receptor mutant F58I [Mutant H1-3]” yielded a UTP Max Response (±SE) of 122%.
Molecule “H1-4: human P2Y2 receptor mutant F58L S359P [Mutant H1-4]” has a UTP Max Response (±SE) of 96%.
“H7-1: human P2Y2 receptor mutant K240N F307S [Mutant H7-1]” gave a UTP Max Response (±SE) of 199%.
For “TM-2: human P2Y2 receptor mutant L59I C119S”, the UTP Max Response (±SE) was 143%.
TM-3: human P2Y2 receptor mutant N116S showed a UTP Max Response (±SE) of 86%.
With “TM-4: human P2Y2 receptor mutant L162I Q165H” the UTP Max Response (±SE) was 69%.
For “WT: wild-type human P2Y2 receptor (NP_002555.4), yeast codon-optimized [reference compound]”, the UTP Max Response (±SE) was 98%.
In the case of B1, the UTP Max Response (±SE) is reported as 84%.
B2 gave a UTP Max Response (±SE) of 128%.

Same assay, conditions: ligand eUTP; ratio of highest fluorescence versus 10% signal saturation
In the case of “H1-2: human P2Y2 receptor mutant F58L [Mutant H1-2]”, the “UTP Dynamic Range” value is reported as 6.
In the case of “H1-3: human P2Y2 receptor mutant F58I [Mutant H1-3]”, the “UTP Dynamic Range” value is reported as 8.
With “H1-4: human P2Y2 receptor mutant F58L S359P [Mutant H1-4]” the “UTP Dynamic Range” value was 7.
In the case of “H7-1: human P2Y2 receptor mutant K240N F307S [Mutant H7-1]”, the “UTP Dynamic Range” value is reported as 3.
With “TM-2: human P2Y2 receptor mutant L59I C119S” the “UTP Dynamic Range” value was 8.
In the case of TM-3: human P2Y2 receptor mutant N116S, the “UTP Dynamic Range” value is reported as 5.
With “TM-4: human P2Y2 receptor mutant L162I Q165H” the “UTP Dynamic Range” value was 7.
For “WT: wild-type human P2Y2 receptor (NP_002555.4), yeast codon-optimized [reference compound]”, the “UTP Dynamic Range” value was 9.
With B1 the “UTP Dynamic Range” value was 3.
For B2, the “UTP Dynamic Range” value was 4.

Same assay, conditions: no agonist
For “H7-1: human P2Y2 receptor mutant K240N F307S [Mutant H7-1]”, the “signaling in the absence of agonist (constitutive activity)” value (“signaling in the absence of agonist” for short) was “increased responsiveness and signaling in the absence of agonist (constitutive activity)”.
With TM-3: human P2Y2 receptor mutant N116S the “signaling in the absence of agonist” value was “increased responsiveness and signaling in the absence of agonist (constitutive activity)”.
With B1 the “signaling in the absence of agonist” value was “increased responsiveness and signaling in the absence of agonist (constitutive activity)”.

Same assay, conditions: response/sensitivity to ATP versus WT, post-sorting follow-up
“6R1-2: human P2Y2 receptor mutant I214T [Mutant 6R1-2]” was tested, and the “Follow-up Test Results” value was “No different than WT, not selected for”.
For “18R2-2: human P2Y2 receptor mutant L112S A176V [Mutant 18R2-2]”, the “Follow-up Test Results” value was “No different than WT, not selected for”.
For “18R2-23: human P2Y2 receptor mutant V250A [Mutant 18R2-23]”, the “Follow-up Test Results” value was “No different than WT, not selected for”.
In the case of B3, the “Follow-up Test Results” value is reported as “inconsistent results”.
